Data taken from patent publication US8815499B2, “In situ detoxification of fermentation inhibitors with reducing agents” (priority 2009, dated 2014).
Where two headings read alike, the source gives them in different places.

Assays:
[1] = tested on: yeast Saccharomyces cerevisiae
Description: A spruce slurry was prepared an subjected to acidic hydrolysis as described in Example 6. […] Sodium dithionite was added to different samples to concentrations of 2.5, 5, 7.5, 10, 12.5, and 15 mM. The treatments were performed at 21° C. for 5 min with stirring. In addition, treatments with 0.1% (7.9 mM) and 1% (79.3 mM) sodium sulphite were performed. […] Furthermore, a sugar solution (glucose 18 g/L, mannose 14 g/L) was prepared to evaluate if the effect of the sodium dithionite treatment was due to an effect on the hydrolysate or the ethanolic fermentation with yeast. Half of the sugar solution was treated with 10 mM sodium dithionite, whereas the rest was left untreated as a reference. The volumes of treated and untreated samples were equalized with water and the pH was adjusted to pH 5.5 prior to the fermentation. Fermentation was performed with the yeast Saccharomyces cerevisiae as described in the previous Examples.
Spruce hydrolysate samples were prepared as in Example 6.
Two samples were treated with DTT to 2 and 20 mM, respectively, two samples were treated with ascorbic acid to 10 and 100 mM, respectively and two samples were treated with glutathione to 1 and 10 mM, respectively.
The treatment time was 3 h for all samples and fermentation was performed as described in the previous Examples.

[2] = Fermentation of sugar solution with model inhibitor coniferyl aldehyde; conditions: Saccharomyces cerevisiae
Description: (§1) A sugar solution (glucose 18 g/L, mannose 14 g/L) with a coniferyl aldehyde concentration of 2.5 mM was prepared. Half of the solution was treated with 10 mM of sodium dithionite and the rest of the solution was left untreated as a reference. Fermentation was performed with the yeast Saccharomyces cerevisiae as described in the previous Examples.

[3] = tested on: yeast Saccharomyces cerevisiae; assay: as above; conditions: sugar solution with coniferyl aldehyde (2.5 mM), untreated, FIG. 12
Description: as §1

[4] = tested on: baker's yeast (Saccharomyces cerevisiae); type: cell-based
Description: The pH of the sugarcane bagass and spruce hydrolysates were adjusted to 5.5 with a 5 M solution of sodium hydroxide. The conditioning of each hydrolysate was performed in eight 100-mL glass vessels equipped with magnetic stirrer bars. 26 mL hydrolysate was added to all vessels, and the vessels were placed on a magnetic stirrer plate (IKA-Werke, Staufen, Germany). Sodium dithionite (chemical grade; >87%, Merck, Darmstadt, Germany) was added to hydrolysates in the concentrations 5 and 10 mM. Additions of sodium sulphite to 5 and 10 mM were also performed. The additions were made at room temperature (23° C.) and the samples were kept for 10 min with stirring. The experiments were performed in duplicates.
The efficiency of the additions of the reducing agents was compared with alkali detoxification.
Ethanol measurements were performed by using an enzymatic kit (Ethanol UV-method, Boehringer Mannheim GmbH, Mannheim, Germany). Fermentation experiments were performed to evaluate the effectiveness of the additions and treatments. For comparison, untreated hydrolysates were included in the fermentation experiments as well as reference fermentations of sugar-based medium with an amount of fermentable sugars (i.e. glucose and mannose) corresponding to that in the hydrolysate samples. The fermentations were carried out using baker's yeast (Saccharomyces cerevisiae) (Jästbolaget AB, Rotebro, Sweden). The yeast inoculum was prepared in 750-mL cotton-plugged shake flasks with 300 mL YEPD medium ([…], 2% D-glucose). The flasks were inoculated and incubated with agitation at 30° C. for approximately 12 h. The cells were harvested in the late exponential growth phase by centrifugation (Hermla Z206A, Hermle Labortechnik GmbH, Wehingen, Germany) at 1,500 g for 5 min. The cells were resuspended in an appropriate amount of sterile water to achieve an inoculum consisting of 2.0 g/L (cell dry weight) in all fermentation vessels. The fermentation was carried out in 14 25-mL glass flasks equipped with magnets for stirring and sealed with rubber plugs pierced with cannulas for letting out carbon dioxide. The hydrolysate samples (23.75 mL), or alternatively the sugar solution for reference fermentations, were added to the fermentation flasks along with 0.5 mL of a nutrient solution (150 g/L yeast extract, 75 g/L (NH4)2HPO4, 3.75 g/L MgSO4.7 H2O, 238.2 g/L NaH2PO4.H2O), and 0.75 mL of yeast inoculum. The flasks were incubated at 30° C. in a water bath with magnetic stirring (IKA-Werke). Samples for measurement of sugars and ethanol were withdrawn during the fermentation. The glucose levels during the fermentation were estimated by using a glucometer (Glucometer Elite XL, Bayer AG, Leverkusen, Germany).

[5] = tested on: yeast Saccharomyces cerevisiae; assay: Simultaneous saccharification and fermentation (SSF) of spruce slurry; type: cell-based; conditions: for Ethanol concentration: after 70 hours
Description: Addition of sodium dithionite and sodium sulphite was tested in an SSF process. Spruce was pretreated as described in Example 1 above. The spruce slurry was adjusted to pH 5.4 with a 5 M solution of sodium hydroxide. Ten 250-mL shake flasks equipped with magnetic stirrer bars were filled with 100 g of spruce slurry. Sodium dithionite or sodium sulphite was added to the slurries to final concentrations of 7.5 and 10 mM. The additions were performed at room temperature (23° C.) for 10 min with stirring. Duplicate experiments were made. Cellulase and cellobiase preparations were prepared and added to the slurry using the enzyme activity loadings as described in Example 1 above. Further, the yeast inoculum was prepared according to Example 1 above. Inoculums were added to give a start concentration of 2.0 g/L (cell dry weight) in every flask. No source of extra nutrients was added. For comparison, two flasks with spruce slurry to which no reducing agents had been added were included in the experiment. The flasks were incubated at 35° C. for 69 h in a water bath with magnetic stirring. The flasks were sealed with Parafilm (Pechiney Plastic Packaging Company, Chicago, Ill., USA) to prevent evaporation of ethanol. Samples were withdrawn for analysis of ethanol according to Example 1 above.
A spruce slurry was prepared according to Examples 1 and 2 above. Different flasks were filled with 100 g each of the spruce slurry and were subjected to a SSF process according to Example 2 above, but with different amounts of dithionite and sulphite added. The produced ethanol was monitored during the fermentation. […]

[6] = tested on: yeast Saccharomyces cerevisiae; assay: Simultaneous saccharification and fermentation (SSF) of sugarcane bagass slurry; type: cell-based; conditions: 7.5 and 10 mM, FIG. 9
Description: SSF experiments were also performed with sugarcane bagass slurries. […] Reducing agents, dithionite and sulphite, respectively, were added 10 min prior to inoculum in concentrations of studied 7.5 and 10 mM. The ethanol concentration was measured after 13 and 45 hours according to the protocol described in Example 1.

[7] = bagass hydrolysate, 6 h fermentation, 10 mM
[8] = spruce hydrolysate, 14 h fermentation, 10 mM

## O[C@H](CS)[C@H](O)CS (racemic) [DTT, Dithiothreitol]
[1]; acid spruce hydrolysate, 20 mM, treatment time 3 h
  Fermentability: improved fermentability
[1]; acid spruce hydrolysate, 20 mM, treatment time 3 h, FIG. 13
  Glucose consumption rate compared with the untreated sample: higher glucose consumption rate

## N[C@@H](CCC(=O)N[C@@H](CS)C(=O)NCC(=O)O)C(=O)O [glutathione, reduced glutathione]
[1]; acid spruce hydrolysate, 10 mM, treatment time 3 h
  Fermentability: improved fermentability

## COc1cc(/C=C/C=O)ccc1O [coniferyl aldehyde, reference compound]
[2]
  viability at 2.25 h, 2.5 mM: 1.7%
  viability at 7 h, 2.5 mM: 0%
[3]
  Glucose consumption: approximately no reduced glucose concentration

## O=S([O-])[O-].[Na+].[Na+] [Sulphite, sodium sulphite]
[1]; acid spruce hydrolysate, 1% (79.3 mM), FIG. 11
  Fermentability (glucose consumption): better fermentability compared to the untreated hydrolysate
[4]; [7]
  Balanced ethanol yield: 0.21 g EtOH/Σglucose & mannose prior to detoxification
  Productivity: 2.9 g EtOH × L^−1 × h^−1
  Yield: 0.32 g EtOH/g consumed glucose & mannose
[4]; bagass hydrolysate, 6 h fermentation, FIG. 4
  Ethanol production: high ethanol production
[4]; spruce hydrolysate, 10 mM, FIGS. 1 and 2
  Glucose consumption rates and amounts of ethanol produced: substantial improvement
[4]; [8]
  Balanced ethanol yield: 0.16 g EtOH/Σglucose & mannose prior to detoxification
  Productivity: 1.2 g EtOH × L^−1 × h^−1
  Yield: 0.29 g EtOH/g consumed glucose & mannose
[5]; 2.5 mM
  Ethanol concentration: did not result in as high final ethanol concentrations
[5]; 5 mM
  Ethanol concentration: did not result in as high final ethanol concentrations
[5]; 7.5 mM
  Ethanol concentration: 35 to 40 g/L
[5]; 10 mM
  Ethanol concentration: 35 to 40 g/L
[5]; 15 mM
  Ethanol concentration: about 40 g/L
[5]; 20 mM
  Ethanol concentration: about 40 g/L
[5]; 30 mM
  Ethanol concentration: about 40 g/L
[5]; 7.5 and 10 mM, FIG. 5
  Ethanol production compared to the untreated hydrolysate: higher ethanol production
  Time after which ethanol formation leveled off: 20 h
[6]
  Fermentability (ethanol production after 13 and 45 hours): improved fermentability

## N [NH4OH, ammonium hydroxide, reference compound]
[1]; NH4OH treatment, 2.75 h
  Ethanol concentration: 4.56 g/L
  Productivity: 1.66 g EtOH × L^−1 × h^−1
  Yield: 0.30 g EtOH/g consumed glucose and mannose
[1]; NH4OH treatment, 4.25 h
  Ethanol concentration: 10.75 g/L
  Productivity: 2.53 g EtOH × L^−1 × h^−1
  Yield: 0.42 g EtOH/g consumed glucose and mannose
[1]; NH4OH treatment, 6.25 h
  Ethanol concentration: 9.81 g/L
  Productivity: 1.57 g EtOH × L^−1 × h^−1
  Yield: 0.32 g EtOH/g consumed glucose and mannose
[1]; NH4OH treatment, 9.25 h
  Ethanol concentration: 14.08 g/L
  Productivity: 1.52 g EtOH × L^−1 × h^−1
  Yield: 0.47 g EtOH/g consumed glucose and mannose
[1]; acid spruce hydrolysate, NH4OH treatment, fermentation time 2.25 h
  Viable cells: 95.3 ± 3.0%
[4]; bagass hydrolysate, 6 h fermentation, NH4OH detoxification
  Yield: 0.34 g EtOH/g consumed glucose & mannose
[4]; spruce hydrolysate, 14 h fermentation, NH4OH detoxification
  Yield: 0.43 g EtOH/g consumed glucose & mannose

## O=C1O[C@H]([C@@H](O)CO)C(O)=C1O [ascorbic acid]
[1]; acid spruce hydrolysate, 100 mM, treatment time 3 h
  Fermentability: improved fermentability
